Results taken from ChEMBL document CHEMBL1201862, “PubChem BioAssay data set” (2004).
Active and inactive are the calls of the source.

Tests used:
[1] = Luminescence Cell-Based Dose Confirmation HTS to Identify Activators of 5'UTR Stem-Loop Driven Alpha-Synuclein mRNA Translation in H4 Neuroglioblastoma Cells. [Related pubchem assays: 1829 (Project Summary), 1814 (Primary HTS)]; assay type: functional
[2] = target: T1, Protein RecA (Mycobacterium tuberculosis, UniProt P9WHJ3); assay: Fluorescence Cell-Free Homogeneous Dose Retest to Identify Inhibitors of RecA-Intein Splicing Activity. [Related pubchem assays (depositor defined):AID2097, AID2223, AID489010, AID492950]; assay type: functional
T1 sequence (P9WHJ3 whole entry): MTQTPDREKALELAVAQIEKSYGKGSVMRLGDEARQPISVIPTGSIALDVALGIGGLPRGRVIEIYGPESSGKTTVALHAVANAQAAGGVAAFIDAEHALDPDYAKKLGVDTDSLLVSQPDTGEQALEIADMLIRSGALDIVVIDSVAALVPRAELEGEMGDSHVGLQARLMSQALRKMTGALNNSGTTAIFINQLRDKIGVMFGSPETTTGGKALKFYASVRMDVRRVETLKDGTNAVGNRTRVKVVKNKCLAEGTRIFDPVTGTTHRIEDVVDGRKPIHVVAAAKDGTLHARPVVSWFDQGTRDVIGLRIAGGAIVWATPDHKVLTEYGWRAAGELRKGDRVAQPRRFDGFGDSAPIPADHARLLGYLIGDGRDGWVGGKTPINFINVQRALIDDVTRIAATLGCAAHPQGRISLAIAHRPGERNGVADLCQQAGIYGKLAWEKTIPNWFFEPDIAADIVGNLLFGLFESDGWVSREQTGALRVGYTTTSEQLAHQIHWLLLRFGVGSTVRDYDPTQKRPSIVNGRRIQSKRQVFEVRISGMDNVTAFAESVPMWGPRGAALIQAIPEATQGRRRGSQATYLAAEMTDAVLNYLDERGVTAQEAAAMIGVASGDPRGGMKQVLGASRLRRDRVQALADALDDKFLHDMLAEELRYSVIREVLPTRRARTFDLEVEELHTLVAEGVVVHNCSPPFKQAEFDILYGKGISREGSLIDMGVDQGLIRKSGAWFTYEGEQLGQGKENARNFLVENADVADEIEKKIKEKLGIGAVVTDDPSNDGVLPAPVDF

[3] = DRD fibroblast viability loss – cell-based, non-viral oncogenic, luminescence, dose response (AID 1934); assay type: functional; conditions: Homo sapiens
[4] = tested on: BJ; assay: BJ-TERT-LT-ST fibroblast viability loss – cell-based, RAS-independent, luminescence, dose response (AID 1935); assay type: functional; conditions: Homo sapiens;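 further: BJ fibroblasts immortalized with TERT plus LT and ST oncogenes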
[5] = target: T2, Replicative DNA helicase DnaB (Mycobacterium tuberculosis, UniProt P9WMR3); assay: DnaB intein splicing inhibitors, dose response, biochemical, cell-free fluorescence (AID 449749); assay type: functional
T2 sequence (P9WMR3 whole entry): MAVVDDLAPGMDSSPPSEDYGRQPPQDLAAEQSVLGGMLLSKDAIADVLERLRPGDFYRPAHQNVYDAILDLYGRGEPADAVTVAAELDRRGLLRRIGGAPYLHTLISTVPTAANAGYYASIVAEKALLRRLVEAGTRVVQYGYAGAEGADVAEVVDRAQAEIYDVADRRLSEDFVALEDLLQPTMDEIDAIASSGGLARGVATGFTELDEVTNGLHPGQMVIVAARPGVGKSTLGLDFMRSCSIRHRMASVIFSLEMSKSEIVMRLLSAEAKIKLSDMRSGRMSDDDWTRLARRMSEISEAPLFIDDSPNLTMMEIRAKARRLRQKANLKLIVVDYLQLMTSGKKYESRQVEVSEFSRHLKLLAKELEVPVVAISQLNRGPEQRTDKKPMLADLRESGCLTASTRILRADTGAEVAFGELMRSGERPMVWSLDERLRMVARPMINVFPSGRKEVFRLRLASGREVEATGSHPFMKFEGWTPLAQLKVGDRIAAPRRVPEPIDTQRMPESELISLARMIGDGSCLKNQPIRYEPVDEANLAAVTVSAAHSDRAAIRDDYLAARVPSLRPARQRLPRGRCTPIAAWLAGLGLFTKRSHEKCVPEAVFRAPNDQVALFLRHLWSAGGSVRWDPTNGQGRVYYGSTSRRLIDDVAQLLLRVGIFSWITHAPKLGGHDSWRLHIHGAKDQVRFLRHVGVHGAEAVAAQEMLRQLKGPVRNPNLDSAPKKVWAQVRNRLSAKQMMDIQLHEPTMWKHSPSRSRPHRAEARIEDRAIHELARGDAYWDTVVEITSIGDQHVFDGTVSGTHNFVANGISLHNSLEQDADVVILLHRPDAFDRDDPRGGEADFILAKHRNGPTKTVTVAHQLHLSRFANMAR

[6] = target: Glutathione S-transferase omega-1 (Homo sapiens, UniProt P78417); assay: IC50 of human GSTO1 inhibition by gel ABPP – biochemical, SE-Rh probe, in-gel fluorescence, powder samples, late-stage follow-up (AID 463081); assay type: functional
Sequence of Glutathione S-transferase omega-1 (P78417 whole entry): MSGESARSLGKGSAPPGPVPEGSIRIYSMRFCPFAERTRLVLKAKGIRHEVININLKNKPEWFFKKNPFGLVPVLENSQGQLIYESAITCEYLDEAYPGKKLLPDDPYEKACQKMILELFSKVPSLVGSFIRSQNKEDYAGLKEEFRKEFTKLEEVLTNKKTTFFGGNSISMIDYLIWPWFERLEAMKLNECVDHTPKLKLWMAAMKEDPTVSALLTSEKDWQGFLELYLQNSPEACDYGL

[7] = tested on: BJ; assay: BJ-TERT fibroblast viability loss – cell-based, RAS-independent, luminescence, dose response (AID 1933); assay type: functional; conditions: Homo sapiens
[8] = tested on: BJ; assay: cells; assay type: functional, cell-based; conditions: Homo sapiens
[9] = Luminescence Cell-Based Dose Response HTS to Identify Activators of Luciferase Translation or Activity in H4 […] Cells. [Related pubchem assays: 1829 (Project Summary), 1814 (Primary HTS)]; assay type: functional
[10] = tested on: BJ; assay: growth inhibition of engineered Ras-driven BJ cells – cell-based, alamar blue fluorescence, cherrypicked samples, dose response (AID 2631); assay type: functional; conditions: Homo sapiens;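 further: confirmatory dose-response assay in RAS-dependent BJ fibroblasts engineered with TERT, LT and ST, with cytotoxicity read by fluorescence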
[11] = target: Paired box protein Pax-8 (Homo sapiens, UniProt Q06710); assay: PAX8 transcriptional activity inhibition in RMG-I – RMG-I cells, luciferase, cherry-pick, dose response (AID 687027); assay type: functional, cell-based;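 further: luciferase reporter driven by Pax8 target thyroperoxidase promoter measured by SteadyGlo luminescence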
Sequence of Paired box protein Pax-8 (Q06710 whole entry): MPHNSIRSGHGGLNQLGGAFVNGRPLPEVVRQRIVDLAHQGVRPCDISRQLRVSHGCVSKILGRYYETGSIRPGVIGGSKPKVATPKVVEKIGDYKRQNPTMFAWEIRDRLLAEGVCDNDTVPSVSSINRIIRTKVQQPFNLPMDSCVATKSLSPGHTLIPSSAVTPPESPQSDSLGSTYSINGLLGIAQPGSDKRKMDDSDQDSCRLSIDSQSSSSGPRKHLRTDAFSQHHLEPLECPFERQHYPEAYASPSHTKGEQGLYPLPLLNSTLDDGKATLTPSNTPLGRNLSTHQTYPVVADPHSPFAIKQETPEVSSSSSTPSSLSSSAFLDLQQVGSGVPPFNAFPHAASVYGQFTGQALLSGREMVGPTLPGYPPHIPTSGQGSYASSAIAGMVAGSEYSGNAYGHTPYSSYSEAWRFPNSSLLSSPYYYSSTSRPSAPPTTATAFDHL

[12] = tested on: H4; assay: Luminescence Cell-Based Dose Response HTS to Identify Activators of 5'UTR Stem-Loop Driven Prion Protein mRNA Translation in H4 Neuroglioblastoma Cells. [Related pubchem assays: 1829 (Project Summary), 1814 (Primary HTS)]; assay type: functional; conditions: Homo sapiens
[13] = general cell-killing toxicity readout – plate reader, dry powder samples, cytotoxicity control for PAX8 inhibitor project, dose response (AID 743021); assay type: functional, cell-based
[14] = Luminescence Cell-Based Dose Retest to Confirm Inhibitors of Cancer Stem Cells. [Related pubchem assays (depositor defined):AID2717, AID2721]; assay type: functional; conditions: Homo sapiens
[15] = target: DNA dC->dU-editing enzyme APOBEC-3A (Homo sapiens, UniProt P31941); assay: A3A deaminase inhibition for selectivity – biochemical, dose response (AID 504722); assay type: functional
Sequence of DNA dC->dU-editing enzyme APOBEC-3A (P31941 whole entry): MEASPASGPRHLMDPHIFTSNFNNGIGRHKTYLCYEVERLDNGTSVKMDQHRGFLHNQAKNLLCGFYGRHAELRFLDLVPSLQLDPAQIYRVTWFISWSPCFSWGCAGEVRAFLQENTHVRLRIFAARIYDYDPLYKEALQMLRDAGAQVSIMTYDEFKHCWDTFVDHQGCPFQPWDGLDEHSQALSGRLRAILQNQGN

[16] = target: DNA dC->dU-editing enzyme APOBEC-3G (Homo sapiens, UniProt Q9HC16); assay: Dose Response confirmation of small molecule APOBEC3G DNA Deaminase Inhibitors via a fluorescence-based single-stranded DNA deaminase assay. [Related pubchem assays (depositor defined):AID493012, AID493028]; assay type: functional
Sequence of DNA dC->dU-editing enzyme APOBEC-3G (Q9HC16 whole entry): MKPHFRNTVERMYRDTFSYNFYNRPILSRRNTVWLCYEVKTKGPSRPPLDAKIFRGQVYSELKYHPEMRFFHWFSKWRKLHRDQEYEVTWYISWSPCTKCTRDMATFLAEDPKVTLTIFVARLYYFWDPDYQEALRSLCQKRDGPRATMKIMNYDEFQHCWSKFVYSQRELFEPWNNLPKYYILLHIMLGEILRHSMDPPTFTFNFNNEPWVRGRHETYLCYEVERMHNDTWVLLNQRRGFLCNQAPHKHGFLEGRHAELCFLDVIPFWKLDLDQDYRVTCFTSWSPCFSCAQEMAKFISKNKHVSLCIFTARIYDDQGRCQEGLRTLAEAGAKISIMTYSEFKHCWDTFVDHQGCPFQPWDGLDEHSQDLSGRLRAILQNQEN

[17] = NIH/3T3 cell viability loss – mouse embryonic fibroblasts, dry powder, set 2, cytotoxicity control, dose response (AID 493247); assay type: functional, cell-based; conditions: Fibroblast
[18] = tested on: Trypanosoma cruzi; assay: anti-trypanosomal activity in host cells – cell-based, plate reader, dry powder, set 3, dose response (AID 493197); assay type: functional

For `O=C(NC1CCCCC1)C(c1cccnc1)N(C(=O)CCl)c1ccc(F)cc1` (stereo not drawn), the EC50 [1] was > 120 µM (not active), the EC50 [2] was 0.816 µM (active) and the EC50 [3] was 2.48 µM (active). For the same compound, the EC50 [4] was 7.25 µM (active), the AC50 [5] was 5.76 µM (active) and the IC50 [6] was 0.054 µM (active). The EC50 [7] was 1.3 µM (inconclusive), the EC50 [8] was 5.32 µM (inconclusive) and the EC50 [9] was 10.1 µM (active). For the same compound, the EC50 [10] was 0.535 µM (active), the AC50 [11] was 1.43 µM (active) and the EC50 [12] was > 120 µM (not active). For the same compound, the AC50 [13] was 7.37 µM (active) and the AC50 [14] was 1.54 µM (active).
In the case of `Cc1ccc(-n2c(-c3ccco3)n[nH]c2=S)cc1`, the IC50 [15] is reported as > 100 µM (inactive) and the IC50 [16] is reported as 4.57 µM (active).
In the case of `O=C(CCC(=O)Nc1ccccc1)N/N=C/c1ccc([N+](=O)[O-])o1`, the AC50 [17] is reported as 5.35 µM (active) and the AC50 [18] is reported as 0.125 µM (active).
